Data set [1] can be described thus: Suppression of glycoprotein IIb/IIIa activation in thrombin-stimulated human platelets by measuring activated GPIIb/IIIa at 1 mM measured after 3 hrs by PAC-1-FITC dye based flow cytometry (reference value: 90.1%). The data set is classed as functional. Conditions: Platelet.
Data set [2] concerns Mus musculus. Put plainly: Antithrombotic activity in calcein-labelled platelet-mediated ferric chloride-induced arterial injury thrombosis C57BL/6J mouse model assessed as thrombus weight at 50 mg/kg, po administrated twice a day measured upto 7 days (reference value: 3.3 +/- 0.3 mg). The class given is functional. Conditions: time day <=7.
For data set [3], the system named is Mus musculus. As to the kind of experiment: Antithrombotic activity in calcein-labelled platelet-mediated ferric chloride-induced arterial injury thrombosis C57BL/6J mouse model assessed as average time to occlusive thrombosis at 100 mg/kg, po administrated twice a day measured upto 7 days (reference value: 7.9 +/- 0.7 min). The data set is classed as functional. Conditions: time day <=7.

Data set [4] concerns Mus musculus. Put plainly: Antithrombotic activity in calcein-labelled platelet-mediated ferric chloride-induced arterial injury thrombosis C57BL/6J mouse model assessed as thrombus length at 50 mg/kg, po administrated twice a day measured upto 7 days (reference value: 4.4 +/- 0.4 mm). The data set is classed as functional. The following applies: time day <=7.
Data set [5] is described as follows: Toxicity against C57BL/6J mouse assessed as spleen morphology at 200 mg/kg twice a day measured after 60 days. The data set is classed as organism-based. Conditions: in vivo, 1440 h, time 60 day.
Data set [6] in a line: Inhibition of thrombin-stimulated human platelet aggregation by measuring aggregation at 0.50 mM measured after 3 hrs by scanning electron microscopy. Conditions: dose 0.5 mM. The class given is functional. More on the design: scale not given: the % may be the effect or the level left.
Data set [7] concerns Mus musculus. Put plainly: Antithrombotic activity in calcein-labelled platelet-mediated ferric chloride-induced arterial injury thrombosis C57BL/6J mouse model assessed as thrombus length at 100 mg/kg, po administrated twice a day measured upto 7 days (reference value: 4.4 +/- 0.4 mm). The class given is functional. The following applies: time day <=7.
A short description of data set [8]: Inhibition of thrombin-stimulated human platelet aggregation by measuring aggregation at 0.10 mM measured after 3 hrs by scanning electron microscopy (Rvb= 87.2 +/- 4.0%). The data set is classed as functional. Further details: scale not given: the % may be the effect or the level left. Conditions: dose 0.1 mM.
Data set [9] can be described thus: Toxicity in C57BL/6J mouse assessed as change in bicarbonate level at 200 mg/kg twice daily for 60 days relative to control. The data set is classed as organism-based. Conditions: in vivo, 1440 h, time 60 day.

`CN(C)C(=N)NC(=N)NS(=O)(=O)C(F)(F)F`: the level, % of control at 1000 µM in data set [1] is 37.2%. The Activity in data set [2] is listed as 2.7 mg; in data set [4], 3.5 mm; in data set [5], “Non-Toxic”; in [6], 21%; in [7], 2.8 mm; in [8] it was 44.2%. In addition, the Activity entry in data set [9] is recorded as “Non-Toxic”. For the same compound, the Time in [3] is on record as 15.1 min.

These data come from ChEMBL document CHEMBL4765340, “Novel potent antiplatelet thrombotic agent derived from biguanide for ischemic stroke” (Eur J Med Chem, 2020).
